In series [1] the test system is Mycobacterium tuberculosis. The series is described as follows: Antibacterial activity against Mycobacterium tuberculosis clinical isolate N0145 assessed as reduction in ATP level. It is filed as functional, organism-based.
Series [2] has as its system Mycobacterium tuberculosis. The series is described as follows: Antitubercular activity against Mycobacterium tuberculosis H37Rv assessed as inhibition of bacterial growth. It is filed as functional.
Series [3] deals with Mycobacterium tuberculosis. The series is described as follows: Inhibition of wild type Mycobacterium tuberculosis mc2 6020 cytochrome bd oxidase assessed as inhibition of oxygen consumption rate at 10 to 25 uM measured after 5 days by Methylene blue dye based assay. Conditions: dose 10-25 µM, time 5.0 day.
The test system of series [4] is Mycobacterium tuberculosis. The series is described as follows: Antibacterial activity against Mycobacterium tuberculosis H37Rv assessed as inhibition of bacterial growth. It is filed as functional.
Series [5] relates to Mycobacterium tuberculosis. The series is described as follows: Antibacterial activity against Mycobacterium tuberculosis H37Rv assessed as reduction in bacterial growth incubated for 7 days by broth dilution method. Particulars: 168 h, time 7 day. It is filed as functional.
Series [6] concerns Mycobacterium tuberculosis. The series is described as follows: Antibacterial activity against Mycobacterium tuberculosis H37Rv mc2 6206 assessed as inhibition of bacterial growth by resazurin dye based assay. It is filed as functional.
Series [7] relates to Mycobacterium tuberculosis. The series is described as follows: Antimycobacterial activity against Mycobacterium tuberculosis Rv0678. It is filed as functional.
The nature of series [8]: Half life in mouse. It is filed as ADME, organism-based. Particulars: in vivo.
Series [9] has as its system Mycobacterium tuberculosis. The series is described as follows: Antibacterial activity against Mycobacterium tuberculosis H37Rv cytochrome bd oxidase assessed as reduction in total cellular ATP level. It is filed as functional, organism-based.
A short description of series [10]: Oral bioavailability in mouse. It is filed as ADME, organism-based. Conditions: in vivo.
In series [11] the test system is Mycobacterium tuberculosis. The series is described as follows: Antitubercular activity against XDR Mycobacterium tuberculosis assessed as bacterial growth inhibition. It is filed as functional.
For series [12], the system named is Mycobacterium tuberculosis. The series is described as follows: Antibacterial activity against Mycobacterium tuberculosis clinical isolate N0145 assessed as reduction in bacterial growth. It is filed as functional, organism-based.
Series [13] deals with Mycobacterium tuberculosis. The series is described as follows: Antibacterial activity against Mycobacterium tuberculosis H37Rv assessed as reduction in bacterial growth. It is filed as functional, organism-based.

The structures appear in SMILES notation. In brackets after ≈: the same amount, converted by molar mass.

By IC50 is commonly meant the midpoint of a concentration-inhibition curve. Broadly, the MIC is the least concentration at which growth counts as inhibited. By inhibition is commonly meant the change of the read-out against control, counted positive when it falls. As to `CCc1nc2ccc(Cl)cn2c1C(=O)NCc1ccc(N2CCC(c3ccc(OC(F)(F)F)cc3)CC2)cc1` [TELACEBEC], the IC50 in series [1] was 0.1 µM. For the same compound, the MIC in [2] worked out at 0.0015 µM. For the same compound, the inhibition in series [3] was 60%.

For `CC(C)=CCC/C(C)=C/CC/C(C)=C/Cc1c(C)[nH]c2ccccc2c1=O` [AURACHIN D], the MIC in series [2] and in series [4] was above 100 µg/mL in each case. The inhibition in [3] was determined as 60%.

In the case of `NC(=O)NC(=O)c1nc(-c2cc3ccccc3o2)c(N)nc1N`, the MIC in [5] was determined as 4 µM (≈ 1.25 µg/mL); in [6], 9 µM (≈ 2.81 µg/mL); in series [7], 12 µM (≈ 3.75 µg/mL).

Usually half-life stands for the time needed for the level to fall by half in the phase considered. For orientation: bioavailability means the share of a dose that reaches the circulation, judged against a reference dose that is usually intravenous. A low value points to poor availability. In turn, `FC(F)(F)c1ccc(Oc2ccc(Nc3ncnc4ccccc34)cc2)cc1` had a half-life in series [8] of 64 h. The IC50 in series [9] worked out at 2.8 µM. Moreover, in series [10], the bioavailability was 58%. Further, the MIC in series [11] is at most 1 µM.

With `Fc1ccc2c(NCCc3ccc(OC(F)(F)F)cc3)ncnc2c1`, the IC50 in [12] came to 0.2 µM; in series [13], 7.6 µM.

Turning to `CC(C)(C)c1ccc(CCNc2ncnc3ccccc23)cc1`, the IC50 amounted to 0.1 µM in series [12] and 5.8 µM in [13].

Consider `CC(C)(C)c1ccc(CCNc2ncnc3ccsc23)cc1`, for which the IC50 in series [12] was 8.5 µM; in series [13], 5.8 µM.

(Values after ChEMBL document CHEMBL5344478, “Cytochrome bd oxidase: an emerging anti-tubercular drug target” (RSC Med Chem, 2024).)
